Target: Hsp27c (Homo sapiens, UniProt P04792)
Assay: STD-NMR binding experiment
Conditions: Figure S2

Chain of Hsp27c (P04792 79-176): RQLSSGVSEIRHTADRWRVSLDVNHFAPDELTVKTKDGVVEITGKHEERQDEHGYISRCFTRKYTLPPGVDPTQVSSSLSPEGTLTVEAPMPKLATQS

binding to Hsp27c in STD-NMR: bound
Compound: Nc1cccnc1Oc1ccc(F)cc1F [Compound 4, 2-(2,4-difluorophenoxy)pyridin-3-amine]
